The values that follow come from patent US10040804B2, “Compounds targeting proteins, compositions, methods, and uses thereof” (BioTheryX, Inc., priority 2016, dated 2018).

Each structure is given as a SMILES string.

The test system of one experiment is TNF-α. Briefly: TNF-α expression in LPS stimulated PBMCs (Meso Scale). The experiment is classed as cell-based, human. As to conditions: Homo sapiens, PBMC; for inhibition at 5 µM: compound concentration 5 μM; for inhibition at 10 µM: compound concentration 10 μM. How it is done:
FIGS. 7 and 9C are graphs showing TNF-a expression in LPS stimulated peripheral blood mononuclear cells (PBMCs). PBMCs were plated in 96-well plates and pretreated with compound (Compound 1-9 individually) for 1 h, and then induced with 100 ng/mL LPS for 18-24 h. Cytokines in the media were measured according to MesoScale protocol. The negative control wells were treated with DMSO. Compound activity is measured as a percentage of LPS-induced activity. “Rev” is lenalidomide.
(§1) Frozen primary blood mononuclear cells (PBMCs) and frozen CD14+ mobilized peripheral blood monocytes were purchased from AllCells. Cells were quick thawed, and washed 1-time with RPMI-1640/10% FBS/1% Penicillin/1% Streptomycin and plated in 96-well plates at 200,000 cells per well. Cells were pretreated with DMSO only, Compound 5013 (lenolidamide) or the indicated compound for 1 h and then induced with 100 ng/mL lipopolysaccharide (LPS) for 18-24 h. The supernatant was analyzed for IL-1 beta, IL-6, and TNF-α using Meso Scale assay according to manufacturer's protocol. The negative control wells were treated with DMSO.
(§2) PBMCs: AllCells PB003F, Normal Peripheral Blood MNC.
(§3) Media: RPMI 1640/10% FBS/1% Pen-Strep.

The next experiment has as its system IL-6. Kind of experiment: IL-6 expression in LPS stimulated PBMCs (Meso Scale). The experiment is classed as cell-based, human. As to conditions: Homo sapiens, PBMC, LPS-stimulated PBMCs; for inhibition at 5 µM: compound concentration 5 μM; for inhibition at 10 µM: compound concentration 10 μM. How it is done: FIGS. 6 and 9B are graphs showing IL-6 expression in LPS stimulated peripheral blood mononuclear cells (PBMCs). PBMCs were plated in 96-well plates and pretreated with compound (Compound 1-9 individually) for 1 h, and then induced with 100 ng/mL LPS for 18-24 h. Cytokines were measured according to MesoScale protocol. Negative control wells were treated with DMSO. Compound activity was measured as a percentage of LPS-induced activity. “Rev” is lenalidomide.
as §1, §2, §3

For a further experiment, the system named is IL-1β. Briefly: IL-1β expression in LPS stimulated PBMCs (Meso Scale). Type of experiment: cell-based, human. As to conditions: Homo sapiens, PBMC; for inhibition at 5 µM: compound concentration 5 μM; for inhibition at 10 µM: compound concentration 10 μM. As to the method: FIGS. 5 and 9A are graphs showing IL-1-beta expression in LPS stimulated peripheral blood mononuclear cells (PBMCs), PBMCs were plated in 96-well plates and pretreated with compound (Compound 1-9 individually) for 1 h, and then induced with 100 ng/mL LPS for 18-24 h. Cytokines in the media were measured according to MesoScale protocol. Negative control wells were treated with DMSO. Compound activity is measured as a percentage of LPS-induced activity. “Rev” is lenalidomide.
as §1, §2, §3

A further experiment deals with Molm-13 cells. Briefly: Molm-13 cell viability (CellTiter-Glo). As to conditions: Homo sapiens, MOLM-13, read-out: % Inhibition (MOLM-13 Cell Viability); for cytotoxicity at 10 µM: compound concentration 10 μM. The experiment is classed as cell-based. As to the method:
(§4) FIG. 10A is a graph showing antiproliferative activity in H1048 (SCLC) cells. FIG. 10B is a graph showing antiproliferative activity in Molm-13 (AML) cells. In FIGS. 10A and 10B, the cells were incubated for 72 hrs with Compound 9 at the indicated concentrations or DMSO. Compound activity was measured based on the signal from remaining viable cells.
(§5) Molm-13 cells were cultivated in RPMI-1640 (10% FBS/1% pen-strep) and were plated in white walled 96-well plates at 20,000 cells/well. H1048 cells were cultured in DMEM:F12 media supplemented with 5% fetal bovine serum, insulin, transferrin, sodium selenite, hydrocortisone, β-estradiol, penicillin and streptomycin, and were plated in white walled 96-well plates at 20,000 cells/well. MDA-MB-231 cells were cultured in DMEM media supplemented with 10% fetal bovine serum, penicillin and streptomycin, and were plated in white walled 96-well plates at 10,000 cells/well. Cells were treated with compound or DMSO (0.1%, control) and the cultures were incubated for 3 days at 37° C. and 5% CO2. Following the incubation period, 100 μL of CellTiterGlow (CTG) reagent (CellTiter-Glo® Luminescent Cell Viability Assay, Promega (Madison, Wis.)) was added to each well. Following a 10 min incubation with shaking, luminescence was measured using a Victor Wallac Luminometer.
For orientation: ATP-based viability assays read luminescence as a measure of living cells.

The next experiment has as its system IL-2. Kind of experiment: anti-CD3-induced IL-2 secretion in PBMCs. The experiment is classed as cell-based. As to conditions: Homo sapiens, PBMC, anti-CD3 stimulated PBMCs, 24 h, DMSO = 1.0, read-out: Fold Change IL-2; for fold induction at 5 µM: compound concentration 5 μM; for fold induction at 10 µM: compound concentration 10 μM. How it is done:
FIGS. 4 and 9D are graphs showing anti-CD3-induced IL-2 secretion in PBMCs. 1 ug/mL anti-CD3 (OKT-3) antibody in PBS were coated onto 96-well plates overnight at 4° C. Approximately 550,000 PBMCs were added to each well, followed by addition of DMSO only, Compound 1-8 at 10 μM (FIG. 4) or Compound 9 at 0.1 μM or 1 μM (FIG. 9D), or 10 μM lenalidomide (rev). Induction was measured after 24 h as fold difference from the DMSO stimulated control.
For the IL-2 analysis, 96 well plates were precoated with 1 ug/mL anti-human CD3 antibody (OKT3, eBioscience Inc.). After washing with PBS, compounds were added to the wells (50 μL/well) followed by PBMCs diluted at 3-4 million cells/mL (150 μL/well). Plates were incubated for 24 h and the supernatants collected for Mesoscale IL-2 analysis.
Compound activity was measured as fold difference from the DMSO control. IL-1-beta activity is shown in FIG. 1; IL-6 activity is shown in FIG. 2; TNF-α activity is shown in FIG. 3; and IL-2 activity is shown in FIG. 4.

The next experiment deals with H1048 cells. Kind of experiment: H1048 cell viability (CellTiter-Glo). As to conditions: Homo sapiens, NCI-H1048, 72 h, H1048, 3 days, DMSO = 100.00; for viability at 1 µM: 1 μM compound concentration; for viability at 10 µM: 10 μM compound concentration. The experiment is classed as cell-based. As to the method: as §4, §5
The subject of a further experiment is MDA-MB-231 cells. Briefly: MDA-MB-231 cell viability (CellTiter-Glo). The experiment is classed as cell-based. As to conditions: Homo sapiens, 72 h, 3 days, DMSO = 100.00; for viability at 1 µM: 1 μM compound concentration; for viability at 10 µM: 10 μM compound concentration. As to the method:
as §5

For another experiment, the target named is T1, GSPT1 (Homo sapiens, UniProt P15170).
T1 construct: Whole cell extracts were prepared using RIPA buffer according to manufacturer's protocol (Pierce); endogenous in cells
T1 sequence (P15170 whole entry): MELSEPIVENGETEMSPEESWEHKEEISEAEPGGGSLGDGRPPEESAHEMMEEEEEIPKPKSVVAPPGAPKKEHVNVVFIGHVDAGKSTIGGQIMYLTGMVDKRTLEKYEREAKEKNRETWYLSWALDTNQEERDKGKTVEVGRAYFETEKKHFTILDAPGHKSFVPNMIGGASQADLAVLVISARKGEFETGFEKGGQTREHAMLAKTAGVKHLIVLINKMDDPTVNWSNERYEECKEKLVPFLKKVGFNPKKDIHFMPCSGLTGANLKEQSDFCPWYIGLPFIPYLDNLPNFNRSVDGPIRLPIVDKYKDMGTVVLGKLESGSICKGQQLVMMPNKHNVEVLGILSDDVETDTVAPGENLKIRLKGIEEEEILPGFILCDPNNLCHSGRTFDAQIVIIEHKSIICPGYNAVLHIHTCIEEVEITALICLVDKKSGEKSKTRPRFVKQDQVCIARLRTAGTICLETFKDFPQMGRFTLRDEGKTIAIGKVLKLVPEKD
T1 sequence (Q96SW2 whole entry, further chain): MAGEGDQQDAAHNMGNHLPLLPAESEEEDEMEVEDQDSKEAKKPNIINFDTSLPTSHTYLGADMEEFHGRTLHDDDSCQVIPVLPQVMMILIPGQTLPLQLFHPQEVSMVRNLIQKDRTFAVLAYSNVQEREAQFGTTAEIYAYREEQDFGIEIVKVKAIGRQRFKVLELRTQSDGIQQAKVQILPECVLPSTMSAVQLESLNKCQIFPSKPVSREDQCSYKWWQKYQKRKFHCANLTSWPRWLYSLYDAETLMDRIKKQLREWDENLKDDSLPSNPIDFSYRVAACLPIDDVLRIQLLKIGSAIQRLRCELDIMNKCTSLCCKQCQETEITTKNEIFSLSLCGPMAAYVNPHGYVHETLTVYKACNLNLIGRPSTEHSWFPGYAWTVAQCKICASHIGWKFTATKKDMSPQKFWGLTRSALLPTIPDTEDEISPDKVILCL
T1 sequence (Q16531 whole entry partner): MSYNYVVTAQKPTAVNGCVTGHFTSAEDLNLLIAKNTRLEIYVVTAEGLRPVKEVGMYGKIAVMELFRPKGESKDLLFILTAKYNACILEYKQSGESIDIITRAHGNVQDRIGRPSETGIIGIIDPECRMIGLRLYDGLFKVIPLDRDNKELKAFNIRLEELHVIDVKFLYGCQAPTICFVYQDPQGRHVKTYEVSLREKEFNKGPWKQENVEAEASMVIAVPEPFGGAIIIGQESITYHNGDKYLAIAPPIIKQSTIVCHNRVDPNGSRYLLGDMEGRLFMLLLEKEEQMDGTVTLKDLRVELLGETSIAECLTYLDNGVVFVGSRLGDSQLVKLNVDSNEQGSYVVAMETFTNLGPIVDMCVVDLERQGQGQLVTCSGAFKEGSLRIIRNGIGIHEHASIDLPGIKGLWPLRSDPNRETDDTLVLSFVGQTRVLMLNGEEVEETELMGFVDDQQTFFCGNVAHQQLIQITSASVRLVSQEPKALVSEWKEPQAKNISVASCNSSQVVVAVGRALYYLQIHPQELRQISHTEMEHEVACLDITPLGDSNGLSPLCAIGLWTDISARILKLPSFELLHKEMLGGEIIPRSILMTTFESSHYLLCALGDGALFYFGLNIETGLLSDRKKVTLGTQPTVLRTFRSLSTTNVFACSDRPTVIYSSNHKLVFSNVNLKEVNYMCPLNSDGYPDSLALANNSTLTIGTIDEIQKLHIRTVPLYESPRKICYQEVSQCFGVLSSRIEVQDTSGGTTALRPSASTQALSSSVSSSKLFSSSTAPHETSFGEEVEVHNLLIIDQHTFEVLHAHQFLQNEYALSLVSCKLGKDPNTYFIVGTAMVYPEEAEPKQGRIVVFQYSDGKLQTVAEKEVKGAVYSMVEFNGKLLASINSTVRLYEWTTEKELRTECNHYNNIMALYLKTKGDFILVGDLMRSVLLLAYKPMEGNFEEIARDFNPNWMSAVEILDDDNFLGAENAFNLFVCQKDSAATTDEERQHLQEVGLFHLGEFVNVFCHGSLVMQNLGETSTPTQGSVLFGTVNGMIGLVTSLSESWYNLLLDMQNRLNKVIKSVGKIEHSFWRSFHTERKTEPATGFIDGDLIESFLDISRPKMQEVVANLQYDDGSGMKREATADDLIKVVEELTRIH
Kind of experiment: GSPT1 protein levels by Western Blot analysis. The experiment is classed as cell-based. As to conditions: DMSO = 100.00; for remaining activity at 0.1 µM: 100 nM compound concentration; for remaining activity at 1 µM: 1 μM compound concentration. How it is done: Cells were lysed using RIPA Buffer (Pierce) and a Western Blot analysis was performed using anti-GSPT1 and anti-β-actin antibodies. FIG. 11B is a graph showing the expression levels of GSPT1 protein in Molm-13 (AML) cells. Protein expression levels were measured using the LiCor Odyssey instrumentation and methods.
Western Blot Protocol: Cell lines were grown in RPMI 1640 supplemented with streptomycin, penicillin and 10% fetal bovine serum.
Cells were cultured at approximately 10^6 cells per mL and incubated in DMSO or each of the indicated compounds for 6-8 h. Whole cell extracts were prepared using RIPA buffer according to manufacturer's protocol (Pierce). Briefly, 2×10^6 cells were washed once in PBS, the cell pellets were resuspended in RIPA buffer and allowed to incubate for 15 minutes on ice. Cells debris was removed by centrifugation and the cleared whole cell lysates were transferred to new tubes for further analysis.
For Western blot analysis, whole cell protein extracts were separated on 4-12% SDS-polyacrylamide gels, transferred to nitrocellulose, and probed with the indicated primary antibodies. Membranes were subsequently washed and probed with the appropriate IRDye secondary antibodies (LI-COR). The signal was detected using the Odyssey Imaging System (LI-COR).
GSPT1: Rabbit anti-GSPT1 was obtained from Abcam, ab126090 (Cambridge, Eng.)
On the technique in general: A western blot detects proteins with antibodies after separation by electrophoresis.

In the case of `O=C1CCC[C@H](N2Cc3ccsc3C2=O)C(=O)N1` [Compound 1, (S)-3-(6-oxo-4,6-dihydro-5H-thieno[2,3-c]pyrrol-5-yl)azepane-2,7-dione], the figures for the inhibition at 5 µM with TNF-α, with IL-6 and in the experiment on IL-1β were 22%, 0% and 25%, respectively. For the same compound, in the experiment with Molm-13 cells, the cytotoxicity at 10 µM worked out at 6%. Moreover, in the experiment on IL-2, the fold induction at 5 µM worked out at 0.8.
In the same order, the values of `O=C1CCC[C@H](N2Cc3sccc3C2=O)C(=O)N1` [Compound 2, (S)-3-(4-oxo-4,6-dihydro-5H-thieno[2,3-c]pyrrol-5-yl)azepane-2,7-dione] are 65%, 31%, 88%, 32% and 1.9.
In the case of `O=C1CCC[C@H](N2C(=O)c3ccsc3C2=O)C(=O)N1` [Compound 3, (S)-5-(2,7-dioxoazepan-3-yl)-4H-thieno[2,3-c]pyrrole-4,6(5H)-dione], the inhibition at 10 µM in the experiment on TNF-α, with IL-6 and in the experiment on IL-1β was 0% in each case. Moreover, the cytotoxicity at 10 µM in the experiment with Molm-13 cells was determined as 0%. Also, the fold induction at 10 µM in the experiment on IL-2 worked out at 0.9.
Regarding `O=C1NCCCC[C@@H]1N1Cc2sccc2C1=O` [Compound 4, (S)-5-(2-oxoazepan-3-yl)-5,6-dihydro-4H-thieno[2,3-c]pyrrol-4-one], the inhibition at 10 µM in the experiment with TNF-α, in the experiment with IL-6 and in the experiment with IL-1β was 0% each time. Further, in the experiment on Molm-13 cells, the cytotoxicity at 10 µM turned out to be 0%. Moreover, in the experiment with IL-2, the fold induction at 10 µM amounted to 0.7.
As to `O=C1CCC[C@@H](N2Cc3sccc3C2=O)C(=O)N1` [Compound 5, (R)-3-(4-oxo-4,6-dihydro-5H-thieno[2,3-c]pyrrol-5-yl)azepane-2,7-dione], the inhibition (commonly the drop in the measured response relative to a control, in per cent) at 10 µM in the experiment on TNF-α stood at 0%; in the experiment on IL-6, 1%; in the experiment on IL-1β, 0%. Also, the cytotoxicity at 10 µM with Molm-13 cells was 24%. The fold induction at 10 µM with IL-2 was determined as 1.4.
`O=C1C[C@H](N2Cc3sccc3C2=O)C(=O)N1` [Compound 6, (S)-3-(4-oxo-4,6-dihydro-5H-thieno[2,3-c]pyrrol-5-yl)pyrrolidine-2,5-dione]: the inhibition at 10 µM in the experiment on TNF-α stood at 16%; in the experiment on IL-6, 8%; in the experiment with IL-1β, 14%. For the same compound, the cytotoxicity at 10 µM in the experiment on Molm-13 cells stood at 0%. For the same compound, the fold induction at 10 µM in the experiment with IL-2 was 1.
In the same order, the values of `O=C1CCC[C@H](N2Cc3cscc3C2=O)C(=O)N1` [Compound 7, (S)-3-(4-oxo-4H-thieno[3,4-c]pyrrol-5(6H)-yl)azepane-2,7-dione] are 41%, 47%, 60%, 24% and 1.7.
On to `O=C1CCC(N2Cc3c(csc3CNC(=O)Nc3ccc(C(F)(F)F)c(Cl)c3)C2=O)C(=O)N1` (stereo not shown) [Compound 55, 1-(3-chloro-4-(trifluoromethyl)phenyl)-3-((5-(2,6-dioxopiperidin-3-yl)-4-oxo-5,6-dihydro-4H-thieno[3,4-c]pyrrol-1-yl)methyl)urea], for which the inhibition at 0.1 µM in the experiment on TNF-α (compound concentration 0.1 μM) was found to be 96%; in the experiment with IL-6 (compound concentration 0.1 μM), 100%; in the experiment with IL-1β (compound concentration 0.1 μM), 99%. In addition, the viability (commonly a read-out of living cells in per cent, often relative to untreated cells) at 1 µM with H1048 cells was 7.63%; in the experiment with MDA-MB-231 cells, 20.2%. Besides, the viability at 10 µM in the experiment on H1048 cells amounted to 7.94%; in the experiment with MDA-MB-231 cells, 19%. In addition, the cytotoxicity at 0.1 µM in the experiment with Molm-13 cells (compound concentration 0.1 μM) is 100%. For the same compound, on GSPT1, the remaining activity (as a rule, the signal under treatment as a percentage of the control signal) at 0.1 µM came to 1.51%. Further, the remaining activity at 1 µM on GSPT1 was 2.86%.
For the compound `Cc1ccc(NC(=O)NCc2scc3c2CN([C@H]2CCCC(=O)NC2=O)C3=O)nc1Cl` [Compound 57, (S)-1-(6-Chloro-5-methylpyridin-2-yl)-3-((5-(2,7-dioxoazepan-3-yl)-4-oxo-5,6-dihydro-4H-thieno[3,4-c]pyrrol-1-yl)methyl)urea], the values for the inhibition at 1 µM with TNF-α (compound concentration 1 μM), with IL-6 (compound concentration 1 μM) and with IL-1β (compound concentration 1 μM) were 44%, 32% and 42%, respectively. Further, the values for the viability at 1 µM in the experiment on H1048 cells and in the experiment with MDA-MB-231 cells were 12.4% and 107%, respectively. Moreover, the viability at 10 µM with H1048 cells was determined as 8.7%; in the experiment on MDA-MB-231 cells it was 52%. Further, the cytotoxicity at 1 µM with Molm-13 cells (compound concentration 1 μM) came to 45%. The remaining activity at 0.1 µM at GSPT1 was found to be 265%. For the same compound, on GSPT1, the remaining activity at 1 µM is 28.4%.
